Numbers after ± are expanded uncertainties.
Experiment: molar heat capacity at constant pressure
Settings: 101.33 kPa, Crystal, Large sample (1 g) DSC

[O-2].[O-2].[O-2].[Y+3].[Y+3] [yttrium oxide (Y2O3)]
Settings | molar heat capacity at constant pressure [J/K/mol]
603 K | 122.98 ± 5.2
613 K | 123.25 ± 5.2
623 K | 123.52 ± 5.2
633 K | 123.77 ± 5.2
643 K | 124 ± 5.3
653 K | 124.22 ± 5.3
663 K | 124.43 ± 5.3
673 K | 124.63 ± 5.3
683 K | 124.82 ± 5.3
693 K | 125 ± 5.3
703 K | 125.16 ± 5.3
713 K | 125.32 ± 5.3
723 K | 125.47 ± 5.3
733 K | 125.62 ± 5.3
743 K | 125.75 ± 5.3
753 K | 125.88 ± 5.3
763 K | 126 ± 5.3
773 K | 126.12 ± 5.3
783 K | 126.22 ± 5.4
793 K | 126.33 ± 5.4
803 K | 126.42 ± 5.4
813 K | 126.52 ± 5.4
823 K | 126.6 ± 5.4
833 K | 126.68 ± 5.4
843 K | 126.76 ± 5.4
853 K | 126.83 ± 5.4
863 K | 126.9 ± 5.4
873 K | 126.97 ± 5.4
883 K | 127.03 ± 5.4
893 K | 127.09 ± 5.4
903 K | 127.14 ± 5.4
913 K | 127.19 ± 5.4
923 K | 127.24 ± 5.4
933 K | 127.28 ± 5.4
943 K | 127.32 ± 5.4
953 K | 127.36 ± 5.4
963 K | 127.4 ± 5.4
973 K | 127.43 ± 5.4
983 K | 127.46 ± 5.4
993 K | 127.49 ± 5.4
1003 K | 127.52 ± 5.4
1013 K | 127.54 ± 5.4
1023 K | 127.57 ± 5.4
1033 K | 127.59 ± 5.4
1043 K | 127.61 ± 5.4
1053 K | 127.62 ± 5.4
1063 K | 127.64 ± 5.4
1073 K | 127.65 ± 5.4
1083 K | 127.66 ± 5.4
1093 K | 127.67 ± 5.4
1103 K | 127.68 ± 5.4
1113 K | 127.68 ± 5.4
1123 K | 127.68 ± 5.4
1133 K | 127.69 ± 5.4
1143 K | 127.69 ± 5.4
1153 K | 127.69 ± 5.4
1163 K | 127.7 ± 5.4
1173 K | 127.7 ± 5.4
1183 K | 127.7 ± 5.4
1193 K | 127.7 ± 5.4
1203 K | 127.69 ± 5.4

Source: the NIST ThermoML archive (doi:10.1016/j.tca.2013.02.009)
